Source: ChEMBL document CHEMBL5226385, “The Antiangiogenic and Antitumor Effects of Scoparasin B in Non-Small-Cell Lung Cancer” (J Nat Prod, 2023)
Active and inactive are the calls of the source. The calls are words filed in the database; no cut-off is given here.

Experiments:
HUVEC [1] = assay: Antiangiogenic activity against human HUVEC cells assessed as inhibition of cell migration measured after 8 hrs by scratch wound healing assay; type: functional, cell-based; settings: dose 5-15 nM
HMEC-1 [2] = assay: Antiangiogenic activity against human HMEC-1 cells assessed as inhibition of cell migration measured after 8 hrs by scratch wound healing assay; type: functional, cell-based; settings: dose 5-15 nM
HUVEC [3] = assay: Antiangiogenic activity against human HUVEC cells assessed as inhibition of cell migration measured after 24 hrs by Transwell migration assay; type: functional, cell-based; settings: dose 5-15 nM
HUVEC [4] = assay: Antiangiogenic activity against human HUVEC cells assessed as inhibition of cell invasion measured after 24 hrs by Transwell invasion assay; type: functional, cell-based; settings: dose 5-15 nM
HMEC-1 [5] = assay: Antiangiogenic activity against human HMEC-1 cells assessed as inhibition of cell invasion measured after 24 hrs by Transwell invasion assay; type: functional, cell-based; settings: dose 5-15 nM
HUVEC [6] = assay: Antiangiogenic activity against human HUVEC cells assessed as inhibition of capillary tube-like structure formation at 15 nM incubated for 6 hrs by Matrigel based analysis; type: functional; parameters: scale not given: the % may be the effect or the level left
Rattus norvegicus = organism: Rattus norvegicus; assay: Ex vivo antiangiogenic activity against Sprague-Dawley rat aorta rings assessed as reduction in microvessel sprouting from aortic rings by measuring reduction in segment formation measured after 6 days by microscopic analysis; type: functional; settings: dose 5-20 nM, time 6.0 day
HUVEC [7] = assay: Downregulation of VEGF-A protein expression in human HUVEC cells at 5 to 15 nM incubated for 36 hrs by western blot analysis; type: functional, cell-based; settings: dose 5-15 nM
HMEC-1 [8] = assay: Downregulation of VEGFR2 protein expression in human HMEC-1 cells at 5 to 15 nM incubated for 36 hrs by western blot analysis; type: functional, cell-based; settings: dose 5-15 nM
[9] = target: Vascular endothelial growth factor receptor 2 (Homo sapiens) (UniProt P35968); assay: Inhibition of VEGF-A-mediated VEGFR2 signaling pathway in human HUVEC cells assessed as reduction in mTOR phosphorylation at Ser2448 residue at 5 to 15 nM incubated for 36 hrs by western blot analysis; type: cell-based; settings: dose 5-15 nM
Chain of Vascular endothelial growth factor receptor 2 (Homo sapiens) (P35968 whole entry): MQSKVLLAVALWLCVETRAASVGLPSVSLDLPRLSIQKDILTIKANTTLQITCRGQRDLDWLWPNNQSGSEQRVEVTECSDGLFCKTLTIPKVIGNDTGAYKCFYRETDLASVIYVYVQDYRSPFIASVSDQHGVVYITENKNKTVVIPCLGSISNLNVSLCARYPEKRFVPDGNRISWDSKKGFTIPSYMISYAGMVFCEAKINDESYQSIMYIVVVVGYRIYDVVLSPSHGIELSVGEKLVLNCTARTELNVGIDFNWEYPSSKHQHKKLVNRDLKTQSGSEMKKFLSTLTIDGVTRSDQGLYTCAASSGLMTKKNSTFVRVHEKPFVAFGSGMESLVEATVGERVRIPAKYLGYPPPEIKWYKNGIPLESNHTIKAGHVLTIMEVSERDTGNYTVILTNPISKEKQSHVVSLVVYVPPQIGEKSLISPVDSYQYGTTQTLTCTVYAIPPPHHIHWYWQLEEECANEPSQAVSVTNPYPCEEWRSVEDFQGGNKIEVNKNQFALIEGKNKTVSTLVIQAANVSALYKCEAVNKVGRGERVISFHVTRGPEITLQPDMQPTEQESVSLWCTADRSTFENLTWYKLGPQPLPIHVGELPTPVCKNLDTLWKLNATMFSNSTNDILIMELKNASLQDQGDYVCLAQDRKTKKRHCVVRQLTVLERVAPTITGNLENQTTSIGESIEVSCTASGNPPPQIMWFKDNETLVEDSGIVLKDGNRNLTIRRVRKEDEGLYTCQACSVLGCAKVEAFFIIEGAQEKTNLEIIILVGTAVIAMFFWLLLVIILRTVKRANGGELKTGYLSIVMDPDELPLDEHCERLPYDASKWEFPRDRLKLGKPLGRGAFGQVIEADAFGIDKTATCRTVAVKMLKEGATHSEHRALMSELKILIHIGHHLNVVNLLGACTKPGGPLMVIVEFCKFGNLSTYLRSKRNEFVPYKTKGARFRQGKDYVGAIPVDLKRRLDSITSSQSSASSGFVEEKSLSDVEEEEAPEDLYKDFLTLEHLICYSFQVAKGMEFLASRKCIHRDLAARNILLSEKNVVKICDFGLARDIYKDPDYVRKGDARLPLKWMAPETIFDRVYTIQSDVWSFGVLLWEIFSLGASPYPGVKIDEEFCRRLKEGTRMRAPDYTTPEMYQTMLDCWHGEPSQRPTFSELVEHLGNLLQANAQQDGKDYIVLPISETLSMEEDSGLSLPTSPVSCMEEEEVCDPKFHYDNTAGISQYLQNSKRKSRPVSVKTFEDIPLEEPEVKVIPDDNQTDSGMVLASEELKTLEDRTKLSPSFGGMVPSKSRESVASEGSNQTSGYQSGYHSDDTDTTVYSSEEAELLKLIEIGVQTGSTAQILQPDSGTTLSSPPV

[10] = target: Vascular endothelial growth factor receptor 2 (Homo sapiens) (UniProt P35968); assay: Inhibition of VEGF-A-mediated VEGFR2 signaling pathway in human HMEC-1 cells assessed as reduction in mTOR phosphorylation at Ser2448 residue at 5 to 15 nM incubated for 36 hrs by western blot analysis; type: cell-based; settings: dose 5-15 nM
[11] = target: Vascular endothelial growth factor receptor 2 (Homo sapiens) (UniProt P35968); assay: Inhibition of VEGF-A-mediated VEGFR2 signaling pathway in human HMEC-1 cells assessed as reduction in Akt phosphorylation at Thr308 residue at 5 to 15 nM incubated for 36 hrs by western blot analysis; type: cell-based; settings: dose 5-15 nM
HBVP [12] = assay: Inhibition of cell adhesion in human HBVP cells assessed as reduction in cell adhesion number at 5 to 15 nM pretreated with compound for 24 hrs followed by culturing for 1 hr by crystal violet staining based inverted microscopic analysis; type: functional; settings: dose 5-15 nM, time 25.0 hrs
HUVEC [13] = assay: Inhibition of pericyte-mediated angiogenesis in PKH26-labeled human HUVEC cells assessed as reduction in PKH67-labeled HBVP recruitment to newly formed capillary by endothelial cells by measuring reduction in overall vessel coverage for branch points and total tube lengths at 5 to 15 nM pericytes pretreated with compound for 48 hrs followed by incubation with endothelial cells and measured within 3 hrs by Matrigel-based fluorescence analysis; type: functional, cell-based; settings: dose 5-15 nM, time 51.0 hrs
HBVP [14] = assay: Inhibition of PDGF-BB protein expression in human HBVP cells at 5 to 15 nM incubated for 24 hrs by western blot analysis; type: functional, cell-based; settings: dose 5-15 nM
[15] = target: Platelet-derived growth factor receptor beta (Homo sapiens) (UniProt P09619); assay: Inhibition of PDGF-BB-mediated PDGFR-beta signaling axis in human HBVP cells assessed as inhibition of PDGFR-beta phosphorylation at Tyr857 residue at 5 to 15 nM incubated for 24 hrs by western blot analysis; type: cell-based; settings: dose 5-15 nM
Chain of Platelet-derived growth factor receptor beta (Homo sapiens) (P09619 whole entry): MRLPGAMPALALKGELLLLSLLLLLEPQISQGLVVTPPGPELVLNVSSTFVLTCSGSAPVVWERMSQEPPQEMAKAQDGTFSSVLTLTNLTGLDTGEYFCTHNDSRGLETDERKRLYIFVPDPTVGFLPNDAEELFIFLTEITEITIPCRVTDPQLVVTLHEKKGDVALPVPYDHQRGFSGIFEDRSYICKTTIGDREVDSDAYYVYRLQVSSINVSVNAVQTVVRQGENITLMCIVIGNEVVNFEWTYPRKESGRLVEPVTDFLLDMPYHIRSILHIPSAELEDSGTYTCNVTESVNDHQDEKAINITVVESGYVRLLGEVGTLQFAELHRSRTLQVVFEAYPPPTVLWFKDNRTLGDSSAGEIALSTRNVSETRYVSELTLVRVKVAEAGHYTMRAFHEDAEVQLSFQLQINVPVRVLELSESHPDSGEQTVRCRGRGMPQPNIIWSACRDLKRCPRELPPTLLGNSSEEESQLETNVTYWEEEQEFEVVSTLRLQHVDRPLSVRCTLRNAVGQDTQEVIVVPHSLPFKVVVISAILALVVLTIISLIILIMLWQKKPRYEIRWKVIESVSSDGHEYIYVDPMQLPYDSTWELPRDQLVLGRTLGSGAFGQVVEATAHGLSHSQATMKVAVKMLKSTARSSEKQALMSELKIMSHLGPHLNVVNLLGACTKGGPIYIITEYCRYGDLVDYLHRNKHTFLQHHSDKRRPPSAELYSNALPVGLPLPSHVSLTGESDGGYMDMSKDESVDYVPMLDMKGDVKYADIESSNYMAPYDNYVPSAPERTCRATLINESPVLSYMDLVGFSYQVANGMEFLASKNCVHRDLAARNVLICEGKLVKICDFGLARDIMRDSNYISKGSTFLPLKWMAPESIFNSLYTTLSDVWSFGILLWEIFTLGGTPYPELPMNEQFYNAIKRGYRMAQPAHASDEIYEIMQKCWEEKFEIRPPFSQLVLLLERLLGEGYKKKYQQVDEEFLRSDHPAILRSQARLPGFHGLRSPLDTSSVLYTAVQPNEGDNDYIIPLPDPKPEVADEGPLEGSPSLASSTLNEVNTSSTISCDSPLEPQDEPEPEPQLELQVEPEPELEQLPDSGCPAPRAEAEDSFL

NCI-H1299 [16] = assay: Cytotoxicity against human NCI-H1299 cells assessed as reduction in cell viability at 25 nM incubated for 48 hrs by CCK8 assay; type: toxicity, cell-based; settings: nci-h1299, 48 h, 0.025 µM
NCI-H1299 [17] = assay: Inhibition of vasculogenic-mimicry in human NCI-H1299 cells assessed as inhibition of capillary-like network formation by measuring reduction in tube number and vascular branches at 5 to 15 nM measured after 6 hrs by Matrigel-based analysis; type: functional, cell-based; settings: dose 5-15 nM
NCI-H1299 [18] = assay: Downregulation of VE-Cadherin protein expression in human NCI-H1299 cells at 5 to 15 nM incubated for 24 hrs by western blot analysis; type: functional, cell-based; settings: dose 5-15 nM
NCI-H1299 [19] = assay: Downregulation of N-Cadherin protein expression in human NCI-H1299 cells at 5 to 15 nM incubated for 24 hrs by western blot analysis; type: functional, cell-based; settings: dose 5-15 nM
NCI-H1299 [20] = assay: […] of E-Cadherin protein expression in human NCI-H1299 cells at 5 to 15 nM incubated for 24 hrs by western blot analysis; type: functional, cell-based; settings: dose 5-15 nM
NCI-H1299 [21] = assay: Downregulation of MMP9 mRNA expression in human NCI-H1299 cells at 5 to 15 nM incubated for 24 hrs by qPCR analysis; type: functional, cell-based; settings: dose 5-15 nM
[22] = target: Vascular endothelial growth factor receptor 2 (Homo sapiens) (UniProt P35968); assay: Inhibition of VEGF-A-mediated VEGF-R2 signaling pathway in human NCI-H1299 cells assessed as reduction in VEGF-R2 phosphorylation at Tyr1175 residue at 5 to 15 nM by western blot analysis; type: cell-based; settings: dose 5-15 nM
NCI-H1299 [23] = assay: Antitumor activity against human NCI-H1299 cells xenografted in BALB/c nude mouse assessed as tumor volume at 1.5 mg/kg, ip administered every other day for 20 days by vernier caliper analysis (reference value: 1206.46 +/-332.44 mm3); type: functional; settings: time 20 day
[24] = Toxicity against BALB/c nude mouse xenografted with human NCI-H1299 cells assessed as change in body weight at 0.75 to 1.5 mg/kg, ip administered every other day for 20 days; type: organism-based; settings: in vivo, 480 h, dose 0.75-1.5 mg/kg, time 20 day
[25] = Toxicity against BALB/c nude mouse xenografted with human NCI-H1299 cells assessed as morphological changes in liver at 0.75 to 1.5 mg/kg, ip administered every other day for 20 days by Hematoxylin and eosin staining based inverted microscopic analysis; type: organism-based; settings: in vivo, 480 h, dose 0.75-1.5 mg/kg, time 20 day
[26] = Toxicity against BALB/c nude mouse xenografted with human NCI-H1299 cells assessed as morphological changes in kidneys at 0.75 to 1.5 mg/kg, ip administered every other day for 20 days by Hematoxylin and eosin staining based inverted microscopic analysis; type: organism-based; settings: in vivo, 480 h, dose 0.75-1.5 mg/kg, time 20 day
NCI-H1299 [27] = assay: Antitumor activity against human NCI-H1299 cells xenografted in BALB/c nude mouse assessed as increase in tumor necrotic areas at 0.75 to 1.5 mg/kg, ip administered every other day for 20 days by Hematoxylin and eosin staining based inverted microscopic analysis; type: functional, organism-based; settings: dose 0.75-1.5 mg/kg, time 20.0 day
Mus musculus [28] = assay: Inhibition of tumor angiogenesis in BALB/c nude mouse xenografted with human NCI-H1299 cells assessed as reduction in […] cells in tumor at 1.5 mg/kg, ip administered every other day for 20 days by immunohistochemical analysis; type: functional, organism-based; settings: time 20.0 day
Mus musculus [29] = assay: Inhibition of vasculogenic-mimicry in BALB/c nude mouse xenografted with human NCI-H1299 cells assessed as reduction in pericyte coverage around CD31-positive endothelial blood vessels at 0.75 to 1.5 mg/kg, ip administered every other day for […] by immunofluorescence analysis; type: functional, organism-based; settings: dose 0.75-1.5 mg/kg
NCI-H460 = assay: Cytotoxicity against human NCI-H460 cells assessed as reduction in cell viability measured after 72 hrs by MTT assay; type: functional, cell-based; settings: NCI-H460, 72 h

In the case of COc1ccc(C[C@@H]2NC(=O)[C@@]34OC(=O)O/C=C/[C@@](C)(O)C(=O)[C@@H](C)C/C=C/[C@H]3[C@H](O)[C@](C)(O)[C@@H](C)[C@@H]24)cc1 [SCOPARASIN B], the Activity (HUVEC [1]) is reported as “Dose-Dependent Effect”, the Activity (HMEC-1 [2]) is reported as “Dose-Dependent Effect” and the Activity (HUVEC [3]) is reported as “Dose-Dependent Effect”. The Activity (HUVEC [4]) was “Dose-Dependent Effect”, the Activity (HMEC-1 [5]) was “Dose-Dependent Effect” and the Activity (HUVEC [6]) was 100%. The Activity (Rattus norvegicus) was “Dose-Dependent Effect”, the inhibition (HUVEC [7]) was “Active” and the inhibition (HMEC-1 [8]) was “inactive”. The inhibition [9] was “Active”, the inhibition [10] was “Active” and the inhibition [11] was “Active”. The inhibition (HBVP [12]) was “Active”, the inhibition (HUVEC [13]) was “Active” and the inhibition (HBVP [14]) was “Active”. For the same molecule, the inhibition [15] was “Active”, the Activity (NCI-H1299 [16]) was “Non-Toxic” and the inhibition (NCI-H1299 [17]) was “Active”. For the same molecule, the inhibition (NCI-H1299 [18]) was “Active”, the inhibition (NCI-H1299 [19]) was “Active” and the inhibition (NCI-H1299 [20]) was “Active”. For the same molecule, the inhibition (NCI-H1299 [21]) was “Active”, the inhibition [22] was “Active” and the Activity (NCI-H1299 [23]) was 190.09 mm3. For the same molecule, the Activity [24] was “Non-Toxic”, the Activity [25] was “Non-Toxic” and the Activity [26] was “Non-Toxic”. The Activity (NCI-H1299 [27]) was “Active”, the inhibition (Mus musculus [28]) was “Active” and the inhibition (Mus musculus [29]) was “Active”. For the same molecule, the IC50 (NCI-H460) was 3.9 µM.
